Measurements from ChEMBL document CHEMBL1201862, “PubChem BioAssay data set” (2004).
Activity calls are given as the source filed them.

Legend:
Cytochrome P450 1A2 = molecular target: T1, Cytochrome P450 1A2 (Homo sapiens, UniProt P05177);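 further: PubChem cytochrome P450 panel assay, CYP1A2 panel member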
T1 sequence (P05177 whole entry): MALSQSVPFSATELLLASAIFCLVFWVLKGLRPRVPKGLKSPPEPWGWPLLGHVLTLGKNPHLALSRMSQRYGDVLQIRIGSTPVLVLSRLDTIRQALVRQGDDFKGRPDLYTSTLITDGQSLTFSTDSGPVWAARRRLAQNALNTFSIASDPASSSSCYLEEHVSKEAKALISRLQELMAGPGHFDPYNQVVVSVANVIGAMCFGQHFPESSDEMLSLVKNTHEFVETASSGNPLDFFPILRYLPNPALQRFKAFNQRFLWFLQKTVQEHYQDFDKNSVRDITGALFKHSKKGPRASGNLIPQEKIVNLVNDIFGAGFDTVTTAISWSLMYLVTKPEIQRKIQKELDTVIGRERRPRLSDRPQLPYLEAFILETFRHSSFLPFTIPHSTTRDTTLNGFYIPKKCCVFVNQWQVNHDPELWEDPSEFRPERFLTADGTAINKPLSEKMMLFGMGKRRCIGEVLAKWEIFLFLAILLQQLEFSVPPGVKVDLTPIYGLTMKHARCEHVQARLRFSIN

Cytochrome P450 2C19 = Cytochrome P450 2C19 (Homo sapiens, UniProt P33261); experiment: Cytochrome panel assay with activity outcomes. Panel member name: p450-cyp2c19 Compounds with AC50 equal or less than 10 uM are considered active; type: functional; settings: read-out: AC50
Cytochrome P450 2C19, sequence (P33261 whole entry): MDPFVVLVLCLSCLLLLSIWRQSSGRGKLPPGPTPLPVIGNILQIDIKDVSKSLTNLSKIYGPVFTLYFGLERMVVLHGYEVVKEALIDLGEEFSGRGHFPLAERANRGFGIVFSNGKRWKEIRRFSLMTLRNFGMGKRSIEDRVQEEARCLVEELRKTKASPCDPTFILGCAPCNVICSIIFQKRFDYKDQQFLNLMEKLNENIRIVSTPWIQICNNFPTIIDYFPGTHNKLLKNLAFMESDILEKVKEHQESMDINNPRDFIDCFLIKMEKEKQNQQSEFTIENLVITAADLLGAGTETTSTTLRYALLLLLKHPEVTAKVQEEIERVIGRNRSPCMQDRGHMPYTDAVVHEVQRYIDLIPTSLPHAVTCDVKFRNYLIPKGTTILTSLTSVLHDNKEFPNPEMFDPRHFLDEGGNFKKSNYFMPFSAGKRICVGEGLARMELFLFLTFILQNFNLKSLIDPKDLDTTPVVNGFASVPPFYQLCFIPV

[1] = molecular target: T2, Heat shock factor protein 1 (Mus musculus, UniProt P38532); experiment: enhancement of HSF1-driven luciferase signal – cell-based, NIH3T3, luminescence, dose retest, confirmation (AID 435004); type: functional;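 further: stress induced by proteasome inhibitor MG132 added 30 min after compound; luciferase reporter driven by HSF1 response element in NIH3T3 cells; actives raise luminescence as potentiators of the MG132 stress response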
T2 sequence (P38532 whole entry): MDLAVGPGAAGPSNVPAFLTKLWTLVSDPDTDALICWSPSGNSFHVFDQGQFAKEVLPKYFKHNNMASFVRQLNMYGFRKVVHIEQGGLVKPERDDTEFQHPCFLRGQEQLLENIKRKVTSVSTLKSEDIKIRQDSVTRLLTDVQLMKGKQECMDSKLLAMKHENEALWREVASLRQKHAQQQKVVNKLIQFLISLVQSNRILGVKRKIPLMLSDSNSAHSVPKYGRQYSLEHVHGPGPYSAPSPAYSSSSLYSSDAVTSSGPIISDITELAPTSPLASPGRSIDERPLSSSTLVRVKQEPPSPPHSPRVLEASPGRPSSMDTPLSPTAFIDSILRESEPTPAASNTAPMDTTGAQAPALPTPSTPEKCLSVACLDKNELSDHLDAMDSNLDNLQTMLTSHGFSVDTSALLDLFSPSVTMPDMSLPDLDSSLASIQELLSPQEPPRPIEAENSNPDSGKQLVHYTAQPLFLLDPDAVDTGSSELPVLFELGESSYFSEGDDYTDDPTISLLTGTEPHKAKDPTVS

[2] = molecular target: T3, Rac GTPase-activating protein 1 (Homo sapiens, UniProt Q9H0H5); experiment: blockers of MgcRacGAP-driven Rac1 GTP hydrolysis – biochemical, ADP Hunter fluorescence, primary and confirmatory, confirmation (AID 624330); type: functional
T3 sequence (Q9H0H5 whole entry): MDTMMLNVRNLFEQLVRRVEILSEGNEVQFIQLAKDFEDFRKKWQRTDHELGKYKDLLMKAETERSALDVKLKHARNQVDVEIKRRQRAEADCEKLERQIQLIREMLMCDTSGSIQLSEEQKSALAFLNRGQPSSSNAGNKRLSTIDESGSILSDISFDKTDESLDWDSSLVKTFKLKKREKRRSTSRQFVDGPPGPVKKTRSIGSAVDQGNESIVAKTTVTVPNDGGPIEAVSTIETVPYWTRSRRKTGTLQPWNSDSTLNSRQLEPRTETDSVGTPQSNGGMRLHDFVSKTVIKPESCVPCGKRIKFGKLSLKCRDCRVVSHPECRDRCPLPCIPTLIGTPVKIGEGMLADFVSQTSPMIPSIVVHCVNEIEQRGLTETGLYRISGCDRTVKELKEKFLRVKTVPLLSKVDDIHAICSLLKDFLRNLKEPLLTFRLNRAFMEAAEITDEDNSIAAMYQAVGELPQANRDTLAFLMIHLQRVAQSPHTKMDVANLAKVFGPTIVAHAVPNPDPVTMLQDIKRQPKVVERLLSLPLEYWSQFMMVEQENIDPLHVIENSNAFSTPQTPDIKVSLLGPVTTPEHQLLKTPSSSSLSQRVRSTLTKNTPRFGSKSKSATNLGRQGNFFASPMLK

Cytochrome P450 3A4 = Cytochrome P450 3A4 (Homo sapiens, UniProt P08684);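 further: CYP3A4 tested as one member of a cytochrome P450 panel screen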
Cytochrome P450 3A4, sequence (P08684 whole entry): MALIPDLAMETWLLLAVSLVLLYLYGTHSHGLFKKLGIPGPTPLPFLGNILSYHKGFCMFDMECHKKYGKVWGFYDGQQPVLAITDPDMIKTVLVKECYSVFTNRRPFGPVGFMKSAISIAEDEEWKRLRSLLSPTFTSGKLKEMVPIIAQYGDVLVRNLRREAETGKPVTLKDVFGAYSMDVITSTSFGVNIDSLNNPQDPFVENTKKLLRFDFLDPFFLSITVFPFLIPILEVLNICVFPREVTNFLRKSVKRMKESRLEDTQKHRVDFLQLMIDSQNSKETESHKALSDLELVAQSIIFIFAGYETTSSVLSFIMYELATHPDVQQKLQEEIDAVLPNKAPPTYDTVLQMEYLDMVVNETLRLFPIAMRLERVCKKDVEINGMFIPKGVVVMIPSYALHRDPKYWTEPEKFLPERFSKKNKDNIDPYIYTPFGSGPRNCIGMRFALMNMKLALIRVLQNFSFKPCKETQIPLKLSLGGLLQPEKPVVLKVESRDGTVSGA

Cytochrome P450 2D6 = Cytochrome P450 2D6 (Homo sapiens, UniProt P10635);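 further: CYP2D6 member of a cytochrome P450 panel assay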
Cytochrome P450 2D6, sequence (P10635 whole entry): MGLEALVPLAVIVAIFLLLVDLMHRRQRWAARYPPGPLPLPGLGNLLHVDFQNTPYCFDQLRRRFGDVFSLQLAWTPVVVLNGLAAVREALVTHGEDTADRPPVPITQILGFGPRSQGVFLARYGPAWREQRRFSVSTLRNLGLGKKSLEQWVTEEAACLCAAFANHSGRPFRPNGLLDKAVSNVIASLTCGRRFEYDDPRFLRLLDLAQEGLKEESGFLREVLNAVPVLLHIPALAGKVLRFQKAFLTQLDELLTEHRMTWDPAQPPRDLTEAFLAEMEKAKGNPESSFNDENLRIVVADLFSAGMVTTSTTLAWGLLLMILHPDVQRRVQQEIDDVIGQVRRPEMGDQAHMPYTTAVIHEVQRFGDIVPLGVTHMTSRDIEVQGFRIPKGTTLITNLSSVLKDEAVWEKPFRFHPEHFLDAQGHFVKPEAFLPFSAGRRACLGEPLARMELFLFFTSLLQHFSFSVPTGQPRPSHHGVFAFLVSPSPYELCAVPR

[3] = molecular target: T4, Corticotropin-releasing factor receptor 2/Corticotropin-releasing factor-binding protein (Homo sapiens, UniProt P24387+Q13324); experiment: activators of CRF receptor 2 with binding protein – uHTS hits, confirmation (AID 602473); type: functional; settings: read-out: EC50_Mean
T4 sequence (Q13324 whole entry): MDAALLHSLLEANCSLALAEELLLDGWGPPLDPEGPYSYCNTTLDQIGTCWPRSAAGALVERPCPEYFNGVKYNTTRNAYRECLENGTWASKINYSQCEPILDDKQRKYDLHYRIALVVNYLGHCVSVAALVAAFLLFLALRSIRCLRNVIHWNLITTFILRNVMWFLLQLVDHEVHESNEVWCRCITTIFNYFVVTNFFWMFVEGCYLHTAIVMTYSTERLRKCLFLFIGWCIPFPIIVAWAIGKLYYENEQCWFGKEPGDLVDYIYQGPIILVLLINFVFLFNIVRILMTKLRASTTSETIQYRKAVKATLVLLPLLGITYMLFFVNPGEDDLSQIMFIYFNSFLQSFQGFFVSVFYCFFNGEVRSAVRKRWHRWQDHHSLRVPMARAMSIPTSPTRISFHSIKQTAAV
T4 sequence (P24387 whole entry): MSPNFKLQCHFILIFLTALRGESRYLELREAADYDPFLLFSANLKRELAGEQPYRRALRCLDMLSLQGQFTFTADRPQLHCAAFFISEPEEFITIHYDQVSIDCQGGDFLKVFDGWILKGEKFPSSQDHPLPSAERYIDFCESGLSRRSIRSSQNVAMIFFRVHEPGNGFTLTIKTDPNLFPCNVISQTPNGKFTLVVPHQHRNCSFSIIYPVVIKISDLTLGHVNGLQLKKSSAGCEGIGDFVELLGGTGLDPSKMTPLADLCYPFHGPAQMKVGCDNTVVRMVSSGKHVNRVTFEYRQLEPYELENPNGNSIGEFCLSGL

[4] = molecular target: T4, Corticotropin-releasing factor receptor 2/Corticotropin-releasing factor-binding protein; experiment: Dose Response confirmation of uHTS hits for small molecule antagonists of the CRF-binding protein and CRF-R2 receptor complex.; type: functional; settings: read-out: IC50_Mean
[5] = NIH3T3 cell viability loss – ATP luminescence, mouse fibroblasts, counter-screen, dose response (AID 2010); type: functional, cell-based;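 further: cells exposed to compound for about 90 hours before reading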
[6] = Trypanosoma cruzi growth suppression in host cells – NIH3T3 host cells, beta-gal luminescence, confirmation (AID 2044); type: functional, cell-based;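 further: intracellular parasites grown in NIH/3T3 mouse fibroblasts as host cells; luminescent beta-galactosidase reporter signal from transgenic T. cruzi replicating inside host cells; inhibitors lower the luminescence signal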
Cytochrome P450 2C9 = Cytochrome P450 2C9 (Homo sapiens, UniProt P11712)
Cytochrome P450 2C9, sequence (P11712 whole entry): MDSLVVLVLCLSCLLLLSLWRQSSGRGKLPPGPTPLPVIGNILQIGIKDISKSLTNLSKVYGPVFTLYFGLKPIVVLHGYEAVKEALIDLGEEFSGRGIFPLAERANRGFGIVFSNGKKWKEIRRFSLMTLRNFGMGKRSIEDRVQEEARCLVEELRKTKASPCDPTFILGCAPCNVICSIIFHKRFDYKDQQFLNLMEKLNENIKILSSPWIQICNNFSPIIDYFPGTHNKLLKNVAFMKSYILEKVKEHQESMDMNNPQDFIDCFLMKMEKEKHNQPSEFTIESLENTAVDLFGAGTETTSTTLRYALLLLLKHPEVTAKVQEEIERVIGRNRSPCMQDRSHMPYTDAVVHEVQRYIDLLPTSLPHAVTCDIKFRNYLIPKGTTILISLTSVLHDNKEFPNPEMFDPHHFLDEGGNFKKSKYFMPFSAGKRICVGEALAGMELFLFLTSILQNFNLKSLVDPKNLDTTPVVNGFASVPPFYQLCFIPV

[7] = viability of uninfected HEp-2 cells – cell-based, HTS, cytotoxicity control for RSV inhibitor project, dose response (AID 2410); type: functional; settings: human respiratory syncytial virus

NC1=NC2(CCCCCC2)n2c(nc3ccccc32)N1
AC50 (Cytochrome P450 1A2): 28.2 µM (inconclusive)
AC50 (Cytochrome P450 2C19): 22.4 µM (inconclusive)

Nc1cc[n+](CC(=O)Nc2ccccc2)cc1
EC50 [1]: > 260 µM (inactive)

Cn1cnc([N+](=O)[O-])c1Sc1nc(N)nc2c1ncn2[C@H]1C[C@H](O)[C@@H](CO)O1
AC50 (Cytochrome P450 1A2): 6.31 µM (inconclusive)

CC12CN(C(S)=Nc3ccccc3)CC(C)(CN(C(S)=Nc3ccccc3)C1)C2=O
EC50 [1]: > 260 µM (inactive)

CC(C)c1nnc(SCc2ccc(CSc3nnc(C(C)C)n3N)cc2)n1N
EC50 [1]: > 260 µM (inactive)

COc1cc(OC)c(N(C)S(=O)(=O)c2cccc(C(=O)Nc3nnc(C4CC4)s3)c2)cc1Cl
EC50 [1]: 203 µM (active)

COc1ccc(CN2CCNC(=O)C2CC(=O)NCC2CCOCC2)cc1C (centres undefined)
EC50 [1]: > 260 µM (inactive)

CCCCCNCc1cccc(Br)c1
AC50 (Cytochrome P450 1A2): 15.8 µM (inconclusive)

C=CCN(CC=C)C(=O)C1CCN(Cc2ccc(OCc3ccccc3)cc2)CC1
IC50 [2]: 169 µM (active)

Cc1ccc(NC(=O)Cn2cnc3c(cnn3C(C)(C)C)c2=O)cc1
AC50 (Cytochrome P450 3A4): 12.6 µM (inconclusive)
AC50 (Cytochrome P450 2D6): 14.1 µM (inconclusive)
AC50 (Cytochrome P450 1A2): 31.6 µM (inconclusive)

O=[N+]([O-])c1ccc(N2CCN(c3ccc(O)cc3)CC2)c(Cl)c1
IC50 [2]: 45 µM (active)

O=C(Nc1nc(-c2ccccc2)cs1)c1ccc2c(c1)S(=O)(=O)c1ccccc1C2=O
EC50 [3]: > 53 µM (inactive)
IC50 [4]: > 47.1 µM (inactive)

CCN(c1ccccc1)S(=O)(=O)c1cc(NC(=O)CSc2nnc(O)nc2O)ccc1Cl
EC50 [3]: > 53 µM (inactive)
IC50 [4]: > 47.1 µM (inactive)

O=C(CCN1C(=O)c2ccccc2C1=O)Nc1sc2c(c1C(=O)NCC1CCCO1)CCC2 (centres undefined)
EC50 [1]: > 260 µM (inactive)

CCCc1cc(=O)nc(SCC(=O)Nc2ccc(OC(F)F)cc2)[nH]1
EC50 [3]: > 53 µM (inactive)
IC50 [4]: > 47.1 µM (inactive)

CCOC(=O)C1(CCOc2ccccc2)CCN(Cc2cc(OC)c3c(c2)OCO3)CC1
EC50 [1]: > 260 µM (inactive)
EC50 [5]: > 60 µM (not active)
EC50 [6]: 2.65 µM (active)

CCOC(=O)N1CCN(C(=O)CCn2nc(-c3ccccc3)ccc2=O)CC1
AC50 (Cytochrome P450 1A2): 15.8 µM (inconclusive)

COc1ccc(Br)cc1CN(C)CC(=O)NCCc1ccccc1
IC50 [2]: 95.5 µM (active)

COc1ccc(NC(=O)N2CCC3(CC2)CCN(C(=O)c2ccco2)CC3)cc1
AC50 (Cytochrome P450 1A2): 20 µM (inconclusive)

C[C@@]12C=CC(=O)C=C1CC[C@@H]1C2=CC[C@]2(C)[C@@H]1CC[C@H]2C(=O)CN1CCN(c2cc(N3CCCC3)nc(N3CCCC3)n2)CC1
AC50 (Cytochrome P450 2D6): 25.1 µM (inconclusive)
AC50 (Cytochrome P450 2C9): 12.6 µM (inconclusive)
AC50 (Cytochrome P450 1A2): 12.6 µM (inconclusive)

COC(=O)C1CC1C(NC(=O)[C@@H]1CCCN1)c1ccccc1 (some centres undefined)
AC50 (Cytochrome P450 2D6): 20 µM (inconclusive)
AC50 (Cytochrome P450 1A2): 15.8 µM (inconclusive)
AC50 (Cytochrome P450 2C19): 39.8 µM (inconclusive)

CCOC(=O)CSC1=NC(=O)/C(=C\c2ccc(Cl)cc2)S1
EC50 [1]: 2.74 µM (active)
AC50 (Cytochrome P450 2C19): 3.16 µM (inconclusive)
CC50 [7]: 18.9 µM (active)

O=C1c2ccccc2-c2ncnc3c(N4CCOCC4)cc(N4CCOCC4)c1c23
EC50 [3]: > 53 µM (inactive)
IC50 [4]: > 47.1 µM (inactive)

Cc1nn(Cc2ccccc2Cl)c(C)c1NC(=O)CCCn1nc([N+](=O)[O-])c(Cl)c1C
EC50 [1]: > 260 µM (inactive)
EC50 [5]: > 60 µM (not active)
EC50 [6]: 0.514 µM (active)

COc1ccc(Nc2nc(Cl)nc(NCc3ccco3)n2)c(OC)c1
EC50 [3]: > 53 µM (inactive)
IC50 [4]: > 47.1 µM (inactive)

CCS(=O)(=O)N1CCc2nc(-c3ccccc3)sc2C1
EC50 [1]: > 260 µM (inactive)

Cc1ccccc1C(=O)NCC(=O)OC1CCCCC1=O (centres undefined)
EC50 [3]: > 53 µM (inactive)
IC50 [4]: > 47.1 µM (inactive)

CCN1CCCC1CNCC(=O)Nc1ccc(OC(F)(F)F)cc1 (centres undefined)
IC50 [2]: 115 µM (active)

O=[N+]([O-])c1ccc(S(=O)(=O)N(Cc2cccnc2)Cc2cc3ccccc3nc2O)cc1
EC50 [1]: > 260 µM (inactive)
EC50 [5]: > 60 µM (not active)
EC50 [6]: 1.84 µM (active)

Cc1cc(-c2ccccc2)nc2c(Br)c(=O)[nH]n12
IC50 [2]: 210 µM (active)

Cc1ccccc1-c1nnc(CS(=O)(=O)c2ccccc2)o1
EC50 [1]: > 260 µM (inactive)

Oc1ccc(NC(S)=Nc2ccc(F)cc2)cc1
IC50 [2]: 67.5 µM (active)

COC(=O)N1CCC2(CCCN(C(=O)Nc3ccc(OC)cc3)C2)CC1
AC50 (Cytochrome P450 3A4): 25.1 µM (inconclusive)
AC50 (Cytochrome P450 1A2): 20 µM (inconclusive)

Cc1ccc(CNC(=O)CCC(=O)c2cccs2)cc1
EC50 [3]: > 53 µM (inactive)
IC50 [4]: > 47.1 µM (inactive)

COc1cccc(OC)c1C(=O)N1CCN(Cc2cccnc2)CC1
IC50 [2]: 203 µM (active)
EC50 [3]: > 53 µM (inactive)
IC50 [4]: > 47.1 µM (inactive)

C=CCNC1=C(C(=O)CCC(=O)OC)C(=O)CC(C)(C)C1
AC50 (Cytochrome P450 1A2): 2.51 µM (inconclusive)

Cc1cc(OCCCC(=O)Nc2cc(S(=O)(=O)N3CCOCC3)ccc2N2CCOCC2)ccc1Cl
EC50 [3]: > 53 µM (inactive)
IC50 [4]: > 47.1 µM (inactive)

CCC(C)c1ccc(S(=O)(=O)N2CCN(CC(O)COCC3CCCO3)CC2)cc1 (centres undefined)
EC50 [3]: > 53 µM (inactive)
IC50 [4]: > 47.1 µM (inactive)

COc1ccc(N2CCN(C(=O)CCS(=O)(=O)c3ccc4c(c3)NC(=O)CO4)CC2)cc1
EC50 [3]: > 53 µM (inactive)
IC50 [4]: > 47.1 µM (inactive)

Cc1ncc2c(c1O)COP(=O)(O)OC2
AC50 (Cytochrome P450 1A2): 31.6 µM (inconclusive)
AC50 (Cytochrome P450 2C19): 5.01 µM (inconclusive)
